US12576087B2, “Aryloxypiperidine pyrazole compounds as indoleamine 2,3-dioxygenase inhibitors” (Merck Sharp & Dohme LLC, priority 2018, dated 2026)

Each compound was assayed against IDO1 (Homo sapiens, UniProt P14902) (assay: IDO1 Human Whole Blood Assay). Details: WBLD taken as whole blood; read-out: WBLD IC50.
IDO1, sequence (P14902 whole entry): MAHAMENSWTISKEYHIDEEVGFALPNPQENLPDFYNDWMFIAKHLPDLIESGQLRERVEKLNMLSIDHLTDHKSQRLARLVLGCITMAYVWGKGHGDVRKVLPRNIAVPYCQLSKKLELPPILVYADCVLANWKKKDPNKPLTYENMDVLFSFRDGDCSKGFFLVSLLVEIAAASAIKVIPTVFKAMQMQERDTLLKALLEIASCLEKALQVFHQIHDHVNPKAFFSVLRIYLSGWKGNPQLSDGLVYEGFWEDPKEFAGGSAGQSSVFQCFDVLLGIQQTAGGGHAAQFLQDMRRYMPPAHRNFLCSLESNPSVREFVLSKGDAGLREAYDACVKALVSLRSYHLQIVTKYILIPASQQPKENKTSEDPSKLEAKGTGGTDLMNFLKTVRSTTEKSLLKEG
Format: cell-based
Description: Compounds to be tested were serially diluted in ten 3-fold steps in DMSO starting from 10 mM. 3 μL of compound dilutions or DMSO alone were then dispensed from the dilution plate into a polypropylene 96-well assay plate containing 97 μL of RPMI medium using an Echo 555 acoustic liquid handler (Labcyte). LPS and IFNγ was prepared in RPMI medium to a 10× of final conc. (1000 ng/mL), final concentration is 100 ng/mL.
Human whole blood was drawn in sodium heparin coated tubes from healthy internal donors. 240 μL of blood was transferred to each of the wells of a v-bottom 96 well plate. 30 μL of compound was transferred from intermediate dilution plate, and incubated for 15 min. 30 μL from stimulants was then transferred to blood and mixed thoroughly. Plate was covered with breathable membrane and incubated at 37° C. for overnight (18 h).
On day 2, isotope labeled standard solutions of kunurenine and tryptophan was made in water at 10× concentration and 30 μL was added to the blood at 3 μM final concentration. The assay plates were centrifuged at 300×G for 10 min with no brake to separate plasma from red blood cells. 60 μL of plasma samples was removed without disturbing red blood cells. Plasma was diluted with RPMI in 1:1 ratio and proteins were precipitated out with two volumes of Acetonitrile. The plates were centrifuged at 4000×G for 60 min. 20 μL of supernatant was carefully transferred to a 384 well plate containing 40 μL of 0.1% formic acid in water and analyzed by LC/MS/MS.
LC/MS/MS analyses were performed using Thermo Fisher's LX4-TSQ Quantum Ultra system. This system consists of four Agilent binary high-performance liquid chromatography (HPLC) pumps and a TSQ Quantum Ultra triple quadrupole MS/MS instrument. For each sample, 5 μL were injected onto an Atlantis T3 column (2.1 mm×150 mm, 3 μm particle size) from Waters. The mobile phase gradient pumped at 0.8 mL/min was used to elute the analytes from the column at 25° C. The elution started at 0% B increasing linearly to 25% B at 6.5 min, holding at 25% for 1 min, re-equilibrating to 10 min. Mobile phase A consisted of 0.1% formic acid in water. Mobile phase B consisted of 0.1% of formic acid in acetonitrile. Data were acquired in positive mode using a HESI interface. The operational parameters for the TSQ Quantum Ultra instrument were a spray voltage of 4000 V, capillary temperature of 380° C., vaporizer temperature 400° C., shealth gas 60 arbitrary units, Aux gas 20 arbitrary units, tube lens 85 and collision gas 1.2 mTorr. SRM chromatograms of kynurenine (Q1: 209.2>Q3:94.0) and internal standard (Q1: 215.3>Q3:98.2) were collected for 90 sec. The peak area was integrated by Xcalibur Quan software. The ratios between the kynurenine generated in the reaction and 2D6-Kynurenine spiked-in internal standard were used to generate percentage inhibition and IC50 values. Compounds were titrated and IC50's were calculated by 4 parameter sigmoidal curve fitting formula.
Work on `Cc1cc(F)ccc1OC1CCN(C(=O)Cn2nc(C(=O)N3CCC(F)(CO)CC3)c3c2CCC3)CC1` [Example 80, 2-[3-[4-fluoro-4-(hydroxymethyl)piperidine-1-carbonyl]-5,6-dihydro-4H-cyclopenta[c]pyrazol-1-yl]-1-[4-(4-fluoro-2-methyl-phenoxy)-1-piperidyl]ethanone] yielded an IC50 of 259 nM. With `Cc1ccccc1OC1CCN(C(=O)Cn2nc(C(=O)N3CC[C@H](O)[C@H](F)C3)c3c2CCCC3)CC1` [Example 31, 2-(3-((3R,4S)-3-fluoro-4-hydroxypiperidine-1-carbonyl)-4,5,6,7-tetrahydro-1H-indazol-1-yl)-1-(4-(o-tolyloxy)piperidin-1-yl)ethanone] the IC50 was 590 nM. In the case of `Cc1ccccc1OC1CCN(C(=O)Cn2nc(C(=O)N3CC[C@@H](O)[C@@H](F)C3)c3c2C[C@H]2C[C@@H]32)CC1` [Example 27, 2-((3bR,4aR)-3-((3S,4R)-3-fluoro-4-hydroxypiperidine-1-carbonyl)-3b,4,4a,5-tetrahydro-1H-cyclopropa[3,4]cyclopenta[1,2-c]pyrazol-1-yl)-1-(4-(o-tolyloxy)piperidin-1-yl)ethanone], the IC50 is reported as 26.3 nM. `Cc1ccccc1OC1CCN(C(=O)Cn2nc(C(=O)N3CCC(O)CC3)c3c2CCCC3)CC1` [Example 18, 2-(3-(4-hydroxypiperidine-1-carbonyl)-4,5,6,7-tetrahydro-1H-indazol-1-yl)-1-(4-(o-tolyloxy)piperidin-1-yl)ethanone] gave an IC50 of 64 nM. With `Cc1ccccc1OC1CCN(C(=O)Cn2nc(C(=O)N3CCC(F)(CO)CC3)c3c2CCC3)CC1` [Example 30, 2-(3-(4-fluoro-4-(hydroxymethyl)piperidine-1-carbonyl)-5,6-dihydrocyclopenta[c]pyrazol-1(4H)-yl)-1-(4-(o-tolyloxy)piperidin-1-yl)ethanone] the IC50 was 188 nM. In the case of `Cc1ccc(Cl)c(OC2CCN(C(=O)Cn3nc(C(=O)N4C[C@@H](C)O[C@@H](C)C4)c4c3CCC4)CC2)c1` [Example 93, 1-[4-(2-chloro-5-methylphenoxy)piperidin-1-yl]-2-{3-[(2R,6S)-2,6-dimethylmorpholine-4-carbonyl]-5,6-dihydrocyclopenta[c]pyrazol-1(4H)-yl}ethan-1-one], the IC50 is reported as 265 nM. `Cc1ccccc1OC1CCN(C(=O)Cn2nc(C(=O)N3CC[C@H](O)[C@H](F)C3)c3c2C[C@H]2C[C@@H]32)CC1` [Example 16, 2-((3bR,4aR)-3-((3R,4S)-3-fluoro-4-hydroxypiperidine-1-carbonyl)-3b,4,4a,5-tetrahydro-1H-cyclopropa[3,4]cyclopenta[1,2-c]pyrazol-1-yl)-1-(4-(o-tolyloxy)piperidin-1-yl)ethanone] gave an IC50 of 46.7 nM. `C[C@@H]1CN(C(=O)c2nn(CC(=O)N3CCC(Oc4ccc(Cl)c5c4CCC5)CC3)c3c2CCC3)C[C@H](C)O1` [Example 129, 1-{4-[(7-chloro-2,3-dihydro-1H-inden-4-yl)oxy]piperidin-1-yl}-2-{3-[(2R,6S)-2,6-dimethylmorpholine-4-carbonyl]-5,6-dihydrocyclopenta[c]pyrazol-1(4H)-yl}ethan-1-one] was tested, and the IC50 was 3320 nM. For `Cc1ccccc1OC1CCN(C(=O)Cn2nc(C(=O)N3CCC(O)CC3)c3c2C[C@H]2C[C@@H]32)CC1` [Example 21, 2-((3bR,4aR)-3-(4-hydroxypiperidine-1-carbonyl)-3b,4,4a,5-tetrahydro-1H-cyclopropa[3,4]cyclopenta[1,2-c]pyrazol-1-yl)-1-(4-(o-tolyloxy)piperidin-1-yl)ethanone], the IC50 was 40.2 nM. `Cc1ccccc1OC1CCN(C(=O)Cn2nc(C(=O)N3CC[C@@H](O)[C@@H](F)C3)c3c2CCCC3)CC1` [Example 36, 2-(3-((3S,4R)-3-fluoro-4-hydroxypiperidine-1-carbonyl)-4,5,6,7-tetrahydro-1H-indazol-1-yl)-1-(4-(o-tolyloxy)piperidin-1-yl)ethanone] was tested, and the IC50 was 108 nM. For `C[C@@H]1C[C@H](Oc2ccccc2Cl)CCN1C(=O)Cn1nc(C(=O)N2CC[C@@H](O)[C@@H](F)C2)c2c1C[C@H]1C[C@@H]21` [Example 52, 1-((2R,4R)-4-(2-chlorophenoxy)-2-methylpiperidin-1-yl)-2-((3bR,4aR)-3-((3S,4R)-3-fluoro-4-hydroxypiperidine-1-carbonyl)-3b,4,4a,5-tetrahydro-1H-cyclopropa[3,4]cyclopenta[1,2-c]pyrazol-1-yl)ethanone], the IC50 was 101 nM. With `Cc1ccc(F)cc1OC1CCN(C(=O)Cn2nc(C(=O)N3C[C@@H](C)O[C@@H](C)C3)c3c2CCC3)CC1` [Example 90, 2-(3-(cis-2,6-Dimethylmorpholine-4-carbonyl)-5,6-dihydrocyclopenta[c]pyrazol-1(4H)-yl)-1-(4-(5-fluoro-2-methylphenoxy)piperidin-1-yl)ethan-1-one] the IC50 was 142 nM. With `Cc1ccccc1OC1CCN(C(=O)Cn2nc(C(=O)N3CCC(O)CC3)c3c2CCC3)CC1` [Example 33, 2-(3-(4-hydroxypiperidine-1-carbonyl)-5,6-dihydrocyclopenta[c]pyrazol-1(4H)-yl)-1-(4-(o-tolyloxy)piperidin-1-yl)ethanone] the IC50 was 85.9 nM. Work on `Cc1cccc(F)c1OC1CCN(C(=O)Cn2nc(C(=O)N3C[C@@H](C)O[C@@H](C)C3)c3c2CCC3)CC1` [Example 138, 2-{3-[(2R,6S)-2,6-dimethylmorpholine-4-carbonyl]-5,6-dihydrocyclopenta[c]pyrazol-1(4H)-yl}-1-[4-(2-fluoro-6-methylphenoxy)piperidin-1-yl]ethan-1-one] yielded an IC50 of 241 nM. `C[C@@H]1C[C@H](Oc2ccccc2Cl)CCN1C(=O)Cn1nc(C(=O)N2CCN(C(=O)CO)CC2)c2c1C[C@H]1C[C@@H]21` [Example 4, 1-((2R,4R)-4-(2-chlorophenoxy)-2-methylpiperidin-1-yl)-2-((3bR,4aR)-3-(4-(2-hydroxyacetyl)piperazine-1-carbonyl)-3b,4,4a,5-tetrahydro-1H-cyclopropa[3,4]cyclopenta[1,2-c]pyrazol-1-yl)ethanone] gave an IC50 of 315 nM. In the case of `Cc1ccccc1OC1CCN(C(=O)Cn2nc(C(=O)N3CCC(O)(CF)CC3)c3c2CCC3)CC1` [Example 35, 2-(3-(4-(fluoromethyl)-4-hydroxypiperidine-1-carbonyl)-5,6-dihydrocyclopenta[c]pyrazol-1(4H)-yl)-1-(4-(o-tolyloxy)piperidin-1-yl)ethanone], the IC50 is reported as 140 nM. Work on `CC(=O)NC1CCN(C(=O)c2nn(CC(=O)N3CCC(Oc4ccccc4Cl)CC3)c3c2CCCC3)CC1` [Example 6, N-(1-(1-(2-(4-(2-chlorophenoxy)piperidin-1-yl)-2-oxoethyl)-4,5,6,7-tetrahydro-1H-indazole-3-carbonyl)piperidin-4-yl)acetamide] yielded an IC50 of 596 nM. In the case of `C[C@@H]1CN(C(=O)c2nn(CC(=O)N3CCC(Oc4cccc(F)c4)CC3)c3c2CCC3)C[C@H](C)O1` [Example 99, 2-{3-[(2R,6S)-2,6-dimethylmorpholine-4-carbonyl]-5,6-dihydrocyclopenta[c]pyrazol-1(4H)-yl}-1-[4-(3-fluorophenoxy)piperidin-1-yl]ethan-1-one], the IC50 is reported as 575 nM. `Cc1ccccc1OC1CCN(C(=O)Cn2nc(C(=O)N3CC[C@H](O)C[C@@H]3C)c3c2CCCC3)CC1` [Example 17, 2-(3-((2S,4S)-4-hydroxy-2-methylpiperidine-1-carbonyl)-4,5,6,7-tetrahydro-1H-indazol-1-yl)-1-(4-(o-tolyloxy)piperidin-1-yl)ethanone] showed an IC50 of 114 nM. For `Cc1ccccc1OC1CCN(C(=O)Cn2nc(C(=O)N3CCC(OCCO)CC3)c3c2CCC3)CC1` [Example 19, 2-(3-(4-(2-hydroxyethoxy)piperidine-1-carbonyl)-5,6-dihydrocyclopenta[c]pyrazol-1(4H)-yl)-1-(4-(o-tolyloxy)piperidin-1-yl)ethanone], the IC50 was 27.3 nM.

Same assay, conditions: human whole blood, LPS and IFNγ 100 ng/mL, 18 h, kynurenine by LC/MS/MS; read-out: IDO1 human whole blood assay, IC50
With `NC(=O)CN1CCN(C(=O)c2nn(CC(=O)N3CCC(Oc4ccccc4Cl)CC3)c3c2CCCC3)CC1` [Example 5, 2-(4-(1-(2-(4-(2-chlorophenoxy)piperidin-1-yl)-2-oxoethyl)-4,5,6,7-tetrahydro-1H-indazole-3-carbonyl)piperazin-1-yl)acetamide] the IC50 was 543 nM. For `CCOC(=O)c1nn(CC(=O)N2CC[C@@H](Oc3ccccc3Cl)C[C@H]2C)c2c1CCCC2` [Example 11, ethyl 1-(2-((2R,4R)-4-(2-chlorophenoxy)-2-methylpiperidin-1-yl)-2-oxoethyl)-4,5,6,7-tetrahydro-1H-indazole-3-carboxylate], the IC50 was 378 nM.
